From patent US5663175A, “Prodrugs of herpes TK inhibitors” (Merck & Co. Inc., priority 1994, dated 1997)

Target: herpes thymidine kinase (Human herpesvirus 1, UniProt P0DTH5)
Assay: Assay for inhibition of herpes thymidine kinase
Format: biochemical
Method: The assay mixture contains in a final volume of 110 microliters the following: 50 mM Tris-HCl, pH 7.5; 5 mM MgCl2; 5 mM ATP; 2 mM dithiothreitol (DTT); 2.5 mM KF; 0.25 mg/ml bovine serum albumin (BSA); […] thymidine labeled with either ^14 C or ^3 H; the compound being tested as inhibitor; and the viral thymidine kinase. The amount of enzyme, incubation time and temperature are adjusted so that no more than 20% of the substrate is converted to product in a reaction without inhibitor. At the end of the incubation period, 100 microliters of the assay mixture are spotted on a 25 mm disk of DEAE paper. The disks are washed three times with ethanol to remove unreacted thymidine and the amount of thymidine monophosphate produced is determined by scintillation counting of the disks. The results (in IC50) are calculated to give the concentration of inhibitor resulting in 50% inhibition of enzyme. The IC50 of L-58,340 is about 100 nM.

Chain of herpes thymidine kinase (P0DTH5 whole entry): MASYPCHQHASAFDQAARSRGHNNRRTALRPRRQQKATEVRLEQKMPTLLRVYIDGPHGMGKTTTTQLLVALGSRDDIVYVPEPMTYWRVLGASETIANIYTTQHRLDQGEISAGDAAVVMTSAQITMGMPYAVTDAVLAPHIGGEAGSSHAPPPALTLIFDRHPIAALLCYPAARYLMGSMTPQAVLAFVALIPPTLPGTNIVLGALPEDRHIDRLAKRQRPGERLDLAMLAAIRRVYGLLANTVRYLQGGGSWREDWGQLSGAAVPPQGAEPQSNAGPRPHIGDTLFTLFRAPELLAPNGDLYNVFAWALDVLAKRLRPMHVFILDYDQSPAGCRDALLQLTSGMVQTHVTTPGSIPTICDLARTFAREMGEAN

Nc1nc2c(ncn2C[C@H]2CCCC[C@H]2CO)c(=O)[nH]1 [L-758,340, 9-{[1(R)-hydroxymethyl-2(S)-cyclohexyl]methyl}guanine]
IC50 (2 mM labeled thymidine, 5 mM ATP, pH 7.5, read-out: IC50 (concentration of inhibitor resulting in 50% inhibition of enzyme)): ~100 nM | activity as an inhibitor of herpes thymidine kinase relative to its enantiomer (compared with its enantiomer): substantially more active | inhibition of herpes thymidine kinase (in words) (first principal finding): potent inhibitor
